Experimental data as given in patent EP2072509A1, “1-Aryl-1H-quinoline-2-ones: process for their production and their use as anti-inflammatory agents” (Bayer Schering Pharma Aktiengesellschaft, priority 2007, dated 2009).
pIC50: −log10 of the molar value.

Tests used:
[1] = system: cytokine IL-8; experiment: Inhibition of LPS-triggered IL-8 secretion in THP-1 cells (ELISA of supernatant); type: cell-based; details: Homo sapiens
Procedure: The concentration of the cytokines was determined in the supernatant by means of commercially available ELISA kits.

[2] = target: T1, mineral corticoid receptor (MR) (Homo sapiens, UniProt P08235); experiment: Binding to recombinantly produced mineral corticoid receptor
T1 construct: made in house
T1 sequence (P08235 1-984): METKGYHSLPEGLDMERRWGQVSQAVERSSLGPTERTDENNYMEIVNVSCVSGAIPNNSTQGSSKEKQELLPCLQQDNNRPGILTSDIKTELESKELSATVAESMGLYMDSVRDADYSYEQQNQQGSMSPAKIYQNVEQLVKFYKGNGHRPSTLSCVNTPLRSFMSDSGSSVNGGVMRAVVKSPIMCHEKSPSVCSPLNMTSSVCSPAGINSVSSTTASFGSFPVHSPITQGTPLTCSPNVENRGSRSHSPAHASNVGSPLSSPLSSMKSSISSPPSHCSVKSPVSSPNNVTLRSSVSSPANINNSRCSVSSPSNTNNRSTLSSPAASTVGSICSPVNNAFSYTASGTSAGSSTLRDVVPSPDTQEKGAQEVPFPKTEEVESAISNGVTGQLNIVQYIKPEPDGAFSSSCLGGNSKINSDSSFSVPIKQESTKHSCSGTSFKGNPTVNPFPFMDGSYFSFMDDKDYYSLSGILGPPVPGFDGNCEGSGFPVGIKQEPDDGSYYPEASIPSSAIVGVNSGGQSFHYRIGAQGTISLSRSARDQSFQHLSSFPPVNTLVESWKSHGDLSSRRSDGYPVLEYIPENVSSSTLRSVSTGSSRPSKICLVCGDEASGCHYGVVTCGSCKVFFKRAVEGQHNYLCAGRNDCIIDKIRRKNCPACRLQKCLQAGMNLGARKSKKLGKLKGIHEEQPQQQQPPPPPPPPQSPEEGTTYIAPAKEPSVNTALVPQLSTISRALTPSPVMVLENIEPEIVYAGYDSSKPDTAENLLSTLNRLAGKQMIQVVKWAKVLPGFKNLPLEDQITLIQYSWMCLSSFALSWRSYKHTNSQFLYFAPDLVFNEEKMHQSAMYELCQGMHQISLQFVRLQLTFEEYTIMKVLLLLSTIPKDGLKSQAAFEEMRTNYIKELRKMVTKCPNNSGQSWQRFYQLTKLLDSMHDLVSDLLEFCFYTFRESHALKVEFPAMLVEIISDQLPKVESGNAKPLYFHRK
Description: (§1) The binding of the substances to the glucocorticoid receptor (GR) and other steroid hormone receptors (mineral corticoid receptor (MR), progesterone receptor (PR) and androgen receptor (AR)) is examined with the aid of recombinantly produced receptors. Cytosol preparations of Sf9 cells, which had been infected with recombinant baculoviruses, which code for the GR, are used for the binding studies. In comparison to reference substance [^3H]-dexamethasone, the substances show a high to very high affinity to GR.

[3] = target: ER; experiment: Binding to ER (steroid receptor selectivity profile)
[4] = target: T2, progesterone receptor (PR) (Homo sapiens, UniProt P06401); experiment: Binding to recombinantly produced progesterone receptor
T2 construct: made in house
T2 sequence (P06401 1-933): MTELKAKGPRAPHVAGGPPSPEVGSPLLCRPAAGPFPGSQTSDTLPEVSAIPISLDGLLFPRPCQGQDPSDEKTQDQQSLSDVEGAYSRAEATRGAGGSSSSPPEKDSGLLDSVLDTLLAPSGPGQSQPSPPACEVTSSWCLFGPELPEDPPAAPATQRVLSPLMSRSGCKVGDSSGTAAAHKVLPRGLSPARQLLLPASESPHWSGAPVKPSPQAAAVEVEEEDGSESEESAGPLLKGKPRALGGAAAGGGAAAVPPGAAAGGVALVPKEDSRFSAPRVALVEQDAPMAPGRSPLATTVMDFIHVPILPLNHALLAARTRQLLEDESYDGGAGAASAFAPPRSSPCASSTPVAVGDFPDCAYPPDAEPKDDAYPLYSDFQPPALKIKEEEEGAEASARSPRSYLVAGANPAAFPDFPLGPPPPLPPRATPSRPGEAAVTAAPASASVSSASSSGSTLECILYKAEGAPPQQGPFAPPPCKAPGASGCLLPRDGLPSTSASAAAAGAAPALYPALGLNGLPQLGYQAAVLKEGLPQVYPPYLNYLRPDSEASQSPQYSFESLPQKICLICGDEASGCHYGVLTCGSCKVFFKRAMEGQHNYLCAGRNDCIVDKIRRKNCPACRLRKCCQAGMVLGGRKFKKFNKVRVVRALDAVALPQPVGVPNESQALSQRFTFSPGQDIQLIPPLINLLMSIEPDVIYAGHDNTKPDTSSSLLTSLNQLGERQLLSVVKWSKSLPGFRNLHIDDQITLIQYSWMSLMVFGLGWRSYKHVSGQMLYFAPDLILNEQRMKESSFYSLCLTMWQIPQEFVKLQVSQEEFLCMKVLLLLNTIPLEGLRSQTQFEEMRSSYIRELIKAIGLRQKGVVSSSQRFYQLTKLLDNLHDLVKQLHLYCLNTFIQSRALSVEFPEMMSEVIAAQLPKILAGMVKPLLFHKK
Description: as §1

[5] = target: T3, androgen receptor (AR) (Homo sapiens, UniProt P10275); experiment: Binding to recombinantly produced androgen receptor
T3 construct: made in house
T3 sequence (P10275 1-920): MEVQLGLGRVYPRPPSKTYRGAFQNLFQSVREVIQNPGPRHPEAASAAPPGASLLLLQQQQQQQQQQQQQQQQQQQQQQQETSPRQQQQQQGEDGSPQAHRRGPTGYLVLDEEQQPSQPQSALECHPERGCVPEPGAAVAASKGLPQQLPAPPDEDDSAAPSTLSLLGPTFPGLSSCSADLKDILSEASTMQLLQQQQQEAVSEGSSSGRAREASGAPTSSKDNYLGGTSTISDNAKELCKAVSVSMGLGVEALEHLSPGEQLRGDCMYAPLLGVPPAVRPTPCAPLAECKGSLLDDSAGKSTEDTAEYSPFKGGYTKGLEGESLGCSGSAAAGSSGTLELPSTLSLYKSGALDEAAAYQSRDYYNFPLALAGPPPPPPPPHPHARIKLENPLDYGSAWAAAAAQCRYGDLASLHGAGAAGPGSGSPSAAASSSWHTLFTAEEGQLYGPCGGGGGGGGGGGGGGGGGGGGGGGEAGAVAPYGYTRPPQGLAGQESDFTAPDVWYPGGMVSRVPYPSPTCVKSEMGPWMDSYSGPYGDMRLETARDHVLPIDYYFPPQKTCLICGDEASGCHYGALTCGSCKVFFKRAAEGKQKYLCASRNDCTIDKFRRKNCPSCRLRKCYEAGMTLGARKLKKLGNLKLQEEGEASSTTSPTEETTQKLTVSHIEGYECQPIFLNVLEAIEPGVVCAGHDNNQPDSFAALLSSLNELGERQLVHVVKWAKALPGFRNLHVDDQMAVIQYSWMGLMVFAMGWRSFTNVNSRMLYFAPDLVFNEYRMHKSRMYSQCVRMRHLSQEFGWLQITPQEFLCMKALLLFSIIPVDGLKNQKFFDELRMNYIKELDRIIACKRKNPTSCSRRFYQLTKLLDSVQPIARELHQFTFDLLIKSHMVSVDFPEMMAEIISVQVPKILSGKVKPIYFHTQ
Description: as §1

[6] = target: T4, glucocorticoid receptor (GR) (Homo sapiens, UniProt P04150); experiment: Binding to recombinantly produced glucocorticoid receptor (cytosol of baculovirus-infected Sf9 cells, [3H]-dexamethasone as reference); details: recombinant GR, Sf9 cytosol preparations
T4 construct: made in house; host or cells: Sf9 cells infected with recombinant baculovirus (cytosol preparation)
T4 sequence (P04150 1-777): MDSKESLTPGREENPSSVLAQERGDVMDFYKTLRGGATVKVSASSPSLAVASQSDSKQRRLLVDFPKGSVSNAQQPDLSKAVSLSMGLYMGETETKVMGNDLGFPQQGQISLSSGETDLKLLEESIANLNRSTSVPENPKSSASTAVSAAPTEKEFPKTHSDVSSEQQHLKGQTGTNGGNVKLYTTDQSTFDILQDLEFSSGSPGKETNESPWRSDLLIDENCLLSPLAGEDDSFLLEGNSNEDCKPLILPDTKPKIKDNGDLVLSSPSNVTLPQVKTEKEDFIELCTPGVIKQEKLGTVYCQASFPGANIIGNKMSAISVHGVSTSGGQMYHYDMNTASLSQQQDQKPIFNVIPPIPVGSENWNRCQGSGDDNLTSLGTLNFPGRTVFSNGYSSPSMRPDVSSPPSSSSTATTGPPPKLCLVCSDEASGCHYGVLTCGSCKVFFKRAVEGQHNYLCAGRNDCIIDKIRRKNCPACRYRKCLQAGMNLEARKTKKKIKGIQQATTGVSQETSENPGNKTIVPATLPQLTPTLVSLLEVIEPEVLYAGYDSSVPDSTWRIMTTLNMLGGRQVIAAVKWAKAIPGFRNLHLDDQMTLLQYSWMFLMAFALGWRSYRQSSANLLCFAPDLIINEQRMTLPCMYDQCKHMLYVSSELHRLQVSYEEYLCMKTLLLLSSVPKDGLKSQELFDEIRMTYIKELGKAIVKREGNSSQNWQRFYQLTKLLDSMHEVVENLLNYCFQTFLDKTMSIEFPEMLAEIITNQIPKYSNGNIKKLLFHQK
Description: as §1

Row | pIC50 ([1]; LPS-triggered IL-8 secretion, read-out: IC50(IL8)) | pIC50 [2] | pIC50 [3] | pIC50 [4] | pIC50 [5] | pIC50 [6] | Compound | Emax ([1]; efficacy of IL-8 inhibition, LPS, read-out: eff. relative to dexamethasone)
1 | 7.52 | – | – | – | – | – | COc1c(C(C)C)ccc2c1C(C)(C)CC(O)(C(F)(F)F)C2Nc1cccc2c1ccc(=O)n2-c1ccc(F)nc1 (stereo not shown) [Example 1, 5-{[2-Hydroxy-6-isopropyl-5-methoxy-4,4-dimethyl-2-(trifluoromethyl)-1,2,3,4-tetrahydronaphthalene-1-yl]amino}-1-(6-fluoropyridine-3-yl)-1H-quinoline-2-one] | 84.1%
2 | – | < 6.00 | < 6.00 | < 6.00 | < 6.00 | 7.49 | CC(C)c1ccc2c(c1O)C(C)(C)CC(O)(C(F)(F)F)C2Nc1cccc2c1ccc(=O)n2-c1ccc(F)nc1 (stereo not shown) [Example 2, 5-{[2,5-Dihydroxy-6-isopropyl-4,4-dimethyl-2-(trifluoromethyl)-1,2,3,4-tetrahydronaphthalene-1-yl]amino}-1-(6-fluoropyridine-3-yl)-1H-quinoline-2-one] | –
